Results from patent publication US20070185161A1, “Bicyclic substituted indole-derivative steroid hormone nuclear receptor modulators” (priority 2004, published 2007).

What follows are molecules tested against T1, human GR (glucocorticoid receptor) (Homo sapiens, UniProt P04150) (assay: Alternative Binding Assay Protocol (Method 2), GR). Settings: 3H-dexamethasone, 293-GR lysate, racemic mixture unless otherwise indicated.
T1 construct: expressed in transfected cells; host or cells: 293 cells
T1 sequence (P04150 1-777): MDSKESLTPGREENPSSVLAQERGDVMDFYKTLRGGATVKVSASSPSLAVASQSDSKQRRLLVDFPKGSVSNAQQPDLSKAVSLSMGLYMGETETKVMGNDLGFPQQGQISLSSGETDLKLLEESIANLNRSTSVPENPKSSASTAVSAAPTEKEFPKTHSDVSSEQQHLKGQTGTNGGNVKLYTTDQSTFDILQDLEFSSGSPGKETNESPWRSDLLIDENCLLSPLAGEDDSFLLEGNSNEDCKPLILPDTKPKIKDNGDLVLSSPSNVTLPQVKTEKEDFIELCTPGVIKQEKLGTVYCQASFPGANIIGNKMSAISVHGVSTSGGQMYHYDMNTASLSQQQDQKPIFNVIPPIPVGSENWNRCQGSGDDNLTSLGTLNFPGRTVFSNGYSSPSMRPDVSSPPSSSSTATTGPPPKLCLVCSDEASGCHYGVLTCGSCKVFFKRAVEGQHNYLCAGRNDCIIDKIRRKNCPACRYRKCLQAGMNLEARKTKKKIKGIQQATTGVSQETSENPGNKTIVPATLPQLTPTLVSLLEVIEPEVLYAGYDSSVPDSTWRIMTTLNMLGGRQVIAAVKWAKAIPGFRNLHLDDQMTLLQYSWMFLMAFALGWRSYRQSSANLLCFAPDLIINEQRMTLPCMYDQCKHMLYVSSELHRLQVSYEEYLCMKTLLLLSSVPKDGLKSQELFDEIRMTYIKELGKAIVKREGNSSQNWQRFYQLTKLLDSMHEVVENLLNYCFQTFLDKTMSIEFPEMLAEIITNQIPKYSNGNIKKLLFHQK
Procedure: Cell lysates from 293 cells overexpressing human GR (glucocorticoid receptor), AR (androgen receptor), MR (mineralocorticoid receptor) or PR (progesterone receptor) are used for competition binding assays to determine Ki values for test compounds. Briefly, competition binding assays are run in a buffer containing 20 mM Hepes, pH 7.6, 0.2 mM EDTA, 75 mM NaCl, 1.5 mM MgCl2, 20% glycerol, 20 mM sodium molybdate, 0.2 mM DTT, 20 ug/ml aprotinin and 20 ug/ml leupeptin, using either 0.3 nM ^3H-dexamethasone for GR binding, 0.36 nM ^3H-methyltrienolone for AR binding, 0.25 nM ^3H-aldosterone for MR binding, or 0.29 nM ^3H-methyltrienolone for PR binding, and either 20 ug 293-GR lysate, 22 ug 293-AR lysate, 20 ug 293-MR lysate or 40 ug 293-PR lysate per well. Competing compounds are added at various concentraions in half-log increments. Non-specific binding is determined in the presence of 500 nM dexamethasone for GR binding, 500 nM aldosterone for MR binding, or 500 nM methyltrienolone for AR and PR binding,. The binding reaction (140 μl) is incubated for overnight at […], then 70 μl of cold charcoal-dextran buffer (containing per 50 ml of assay buffer, 0.75 g of charcoal and 0.25 g of dextran) is added to each reaction. Plates are mixed 8 minutes on an orbital shaker at 4° C. Plates are then centrifuged at 3,000 rpm at 4° C. for 10 minutes. An aliquot of 120 μl of the mix is transferred to another 96-well plate and 175 μl of Wallac Optiphase “Hisafe 3” scintillation fluid is added to each well. Plates are sealed and shaken vigorously on an orbital shaker. After an incubation of 2 hrs, plates are read in a Wallac Microbeta counter. The data is used to calculate an IC50 and % Inhibition at 10 μM. The Kd for ^3H-dexamethasone for GR binding, ^3H-methyltrienolone for AR binding, ^3H-aldosterone for MR binding, or ^3H-methyltrienolone for PR binding, is determined by saturation binding. The IC50 values for compounds are converted to Ki using Cheng-Prusoff equation and the Kd determined by saturation binding assay.

Ki, ≤ 500 nM:
CC1(c2c[nH]c3c(NS(C)(=O)=O)cccc23)CCc2cc(F)cc(F)c21 (racemic) [Example 22, N-[3-(5,7-Difluoro-1-methyl-indan-1-yl)-1H-indol-7-yl]-methanesulfonamide]
CC1(c2c[nH]c3c(NS(C)(=O)=O)cccc23)CCOc2cc(F)ccc21 (racemic) [Example 34, N-[3-(7-Fluoro-4-methyl-chroman-4-yl)-1H-indol-7-yl]-methanesulfonamide]
CCC1(c2c[nH]c3c(NS(C)(=O)=O)cccc23)CCOc2cc(F)ccc21 (racemic) [Example 35, N-[3-(4-Ethyl-7-fluoro-chroman-4-yl)-1H-indol-7-yl]-methanesulfonamide]
CCC1(c2c[nH]c3c(NS(C)(=O)=O)cccc23)CCOc2cc(F)cc(F)c21 (racemic) [Example 36, N-[3-(4-Ethyl-5,7-difluoro-chroman-4-yl)-1H-indol-7-yl]-methanesulfonamide]
CS(=O)(=O)Nc1cccc2c(C3(C4CC4)CCc4cc(F)ccc43)c[nH]c12 (racemic) [Example 39, N-[3-(1-Cyclopropyl-5-fluoro-indan-1-yl)-1H-indol-7-yl]-methanesulfonamide]
CS(=O)(=O)Nc1cccc2c(C3(CCCO)CCc4cc(F)ccc43)c[nH]c12 (racemic) [Example 40, N-{3-[5-Fluoro-1-(3-hydroxy-propyl)-indan-1-yl]-1H-indol-7-yl}-methanesulfonamide]
CC1(c2c[nH]c3c(NS(C)(=O)=O)cccc23)CCc2cc(F)cc(F)c21 (single isomer, unassigned) [Example 22A, N-[3-(5,7-Difluoro-1-methyl-indan-1-yl)-1H-indol-7-yl]-methanesulfonamide]
CC1(c2c[nH]c3c(NS(C)(=O)=O)cccc23)CCc2cc(F)cc(F)c21 (single isomer, unassigned) [Example 22B, N-[3-(5,7-Difluoro-1-methyl-indan-1-yl)-1H-indol-7-yl]-methanesulfonamide]
CC1(c2c[nH]c3c(NS(C)(=O)=O)cccc23)CCOc2cc(F)ccc21 (single isomer, unassigned) [Example 34A, N-[3-(7-Fluoro-4-methyl-chroman-4-yl)-1H-indol-7-yl]-methanesulfonamide]
CC1(c2c[nH]c3c(NS(C)(=O)=O)cccc23)CCOc2cc(F)ccc21 (single isomer, unassigned) [Example 34B, N-[3-(7-Fluoro-4-methyl-chroman-4-yl)-1H-indol-7-yl]-methanesulfonamide]
CCC1(c2c[nH]c3c(NS(C)(=O)=O)cccc23)CCOc2cc(F)ccc21 (single isomer, unassigned) [Example 35A, N-[3-(4-Ethyl-7-fluoro-chroman-4-yl)-1H-indol-7-yl]-methanesulfonamide]
CCC1(c2c[nH]c3c(NS(C)(=O)=O)cccc23)CCOc2cc(F)ccc21 (single isomer, unassigned) [Example 35B, N-[3-(4-Ethyl-7-fluoro-chroman-4-yl)-1H-indol-7-yl]-methanesulfonamide]
CCC1(c2c[nH]c3c(NS(C)(=O)=O)cccc23)CCOc2cc(F)cc(F)c21 (single isomer, unassigned) [Example 36A, N-[3-(4-Ethyl-5,7-difluoro-chroman-4-yl)-1H-indol-7-yl]-methanesulfonamide]
CCC1(c2c[nH]c3c(NS(C)(=O)=O)cccc23)CCOc2cc(F)cc(F)c21 (single isomer, unassigned) [Example 36B, N-[3-(4-Ethyl-5,7-difluoro-chroman-4-yl)-1H-indol-7-yl]-methanesulfonamide]
